Laboratory results taken from patent US5620985A, “Antimitotic binary alkaloid derivatives from catharanthus roseus” (Pierre Fabre Medicament, priority 1993, dated 1997).

How the values were obtained:
MCF-7 = assay: MTT cytotoxicity test, MCF-7 (growth inhibition); type: cell-based; conditions: Homo sapiens, MCF7; 1 μg/ml; MCF-7 (breast); relative to the controls; read-out: Percentage inhibition of growth MCF-7
Protocol: (§1) Thus, the cytotoxic activity of the products was evaluated using the MTT test [T. Mosman, J. Immunol. […] The amount of formazan formed (and consequently the intensity of the color obtained) is directly proportional to the number of living cells present in the culture medium at the time of the test. The lines used are of human origin, and are marketed by the American Type Cell Collection (ATCC), the reference body for the supply of standardized strains.
(§2) The experimental procedure used is essentially that described by C.
(§3) The results are expressed in the form of a percentage inhibition of growth relative to the controls.

T47D = assay: MTT cytotoxicity test, T47D (growth inhibition); type: cell-based; conditions: Homo sapiens; 1 μg/ml; T47D (breast); relative to the controls; read-out: Percentage inhibition of growth T47
Protocol: as §1, §2, §3

J82 = assay: MTT cytotoxicity test, J82 (growth inhibition); type: cell-based; conditions: Homo sapiens; 1 μg/ml; J82 (bladder); relative to the controls; read-out: Percentage inhibition of growth J82
Protocol: as §1, §2, §3

T24 = assay: MTT cytotoxicity test, T24 (growth inhibition); type: cell-based; conditions: Homo sapiens, T-24; 1 μg/ml; T24 (bladder); relative to the controls; read-out: Percentage inhibition of growth T24
Protocol: as §1, §2, §3

MXT adenocarcinoma = assay: in vivo test on MXT adenocarcinoma grafted in B6D2F1 mice; conditions: for activity on the MXT model: in words, MXT adenocarcinoma model
From the text: The antitumor properties of the products of the invention were confirmed by in vivo tests, in particular on the model of mammalian MXT adenocarcinoma,which is a solid tumor that is particularly insensitive to anticancer agents [C. S. Watson, D. Medina, J. H. Clark, Cancer Res., 37, 3344 (1977); W. T. Bradher and C. A. Claridge, "Antineoplastic Agents", Wiley-Interscience (1984); T. W. Redding and A. V. Schally, Proc. Natl. Acad. Sci. U.S.A., 80, 1459 (1983)].
In this model, mice of type B6D2F1 are grafted by injection (subcutaneous) of a tumor fragment of about 10 mm^3 originating from an MXT tumor. The test products are administered via the i.p. route starting from the 17th day after the graft.

tubulin = assay: inhibition of polymerization of tubulin into microtubules (Weisenberg); type: biochemical; conditions: variations in optical density; read-out: IC50 (concentration which causes 50% inhibition of the polymerization)
From the text: This property was confirmed by measuring the inhibition of polymerization of tubulin into microtubules in the presence of the compounds of the invention, according to the method described by R. C. Weisenberg (Science 177, 1196-7, 1972). The results are expressed as a concentration of product which causes 50% inhibition of the polymerization. This phenomenon is readily monitored and quantified via the variations in optical density.

Compound | inhibition at 1 µg/mL (MCF-7) [%] | inhibition at 1 µg/mL (T47D) [%] | inhibition at 1 µg/mL (J82) [%] | inhibition at 1 µg/mL (T24) [%] | activity on the MXT model (MXT adenocarcinoma) | IC50 (tubulin) [nM] | reduction in tumor size relative to the untreated controls (MXT adenocarcinoma; 9×40 mg/kg, i.p., starting from the 17th day after the graft) [%]
CCC1=C[C@@H]2CN(C1)Cc1c([nH]c3ccccc13)[C@@](C(=O)OC)(c1cc3c(cc1OC)N(C)[C@H]1[C@@](O)(C(=O)OC)[C@H](OC(C)=O)[C@]4(CC)C=CCN5CC[C@]31[C@@H]54)C2 [VINORELBINE, vinorelbine, reference compound] | 50 | 16 | 14 | 62 | devoid of activity |  | 
CC[C@]12C=CCN3CC[C@@]4(c5cc([C@@]6(C(=O)OC)C[C@@H]7CC(C(C)(F)F)CN(CCc8c6[nH]c6ccccc86)C7)c(OC)cc5N(C)[C@H]4[C@@](O)(C(=O)OC)[C@@H]1OC(C)=O)[C@@H]32 (stereo partly drawn) [Example 5, 20'-deoxy 19',19'-difluorovinblastine] | 36 | 27 | 15 | 50 |  | 8900 | 
CC[C@]12C=CCN3CC[C@@]4(c5cc([C@@]6(C(=O)OC)C[C@@H]7CC(C(C)(F)F)CN(CCc8c6[nH]c6ccccc86)C7)c(OC)cc5N(C)[C@H]4[C@@](O)(C(=O)OC)[C@@H]1O)[C@@H]32 (stereo partly drawn) [Example 12, 17-deacetyl 20'-deoxy 19',19'-difluorovinblastine] | 36 | 27 | 0 | 72 |  | 4200 | 
CC[C@]1(O)C[C@@H]2CN(CCc3c([nH]c4ccccc34)[C@@](C(=O)OC)(c3cc4c(cc3OC)N(C)[C@H]3[C@@](O)(C(=O)OC)[C@H](OC(C)=O)[C@]5(CC)C=CCN6CC[C@]43[C@@H]65)C2)C1 [VINBLASTINE, vinblastine, reference compound] |  |  |  |  | devoid of activity | […] | 
CC[C@]12C=CCN3CC[C@@]4(c5cc([C@@]6(C(=O)OC)C[C@@H]7CC(C(C)(F)F)CN(Cc8c6[nH]c6ccccc86)C7)c(OC)cc5N(C)[C@H]4[C@@](O)(C(=O)OC)[C@@H]1O)[C@@H]32 (stereo partly drawn) [Example 11, 17-deacetyl 19',19'-difluoro 15',20'-dihydrovinorelbine] | 45 | 30 | 60 | 51 |  | 2900 | 
CC[C@]12C=CCN3CC[C@@]4(c5cc([C@@]6(C(=O)OC)C[C@@H]7CC(C(C)(F)F)CN(Cc8c6[nH]c6ccccc86)C7)c(OC)cc5N(C)[C@H]4[C@@](O)(C(=O)OC)[C@@H]1OC(C)=O)[C@@H]32 (stereo partly drawn) [Example 1, 19',19'-difluoro 15',20'-dihydrovinorelbine] | 68 | 44 | 45 | 70 |  | 2500 | 40
CC[C@]1(O)C[C@@H]2CN(CCc3c([nH]c4ccccc34)[C@@](C(=O)OC)(c3cc4c(cc3OC)N(C=O)[C@H]3[C@@](O)(C(=O)OC)[C@H](OC(C)=O)[C@]5(CC)C=CCN6CC[C@]43[C@@H]65)C2)C1 [vincristine] |  |  |  |  | devoid of activity |  | 
CC[C@]1(O)C[C@@H]2CN(CCc3c([nH]c4ccccc34)[C@@](C(=O)OC)(c3cc4c(cc3OC)N(C)[C@H]3[C@@](O)(C(N)=O)[C@H](O)[C@]5(CC)C=CCN6CC[C@]43[C@@H]65)C2)C1 [vindesine] |  |  |  |  | devoid of activity |  | 
